Experimental data as given in US10280198B2, “Therapeutic agents for reducing parathyroid hormone levels” (KAI PHARMACEUTICALS, INC., priority 2009, dated 2019).
Where a name gives a salt, the structure may show the parent alone. Read-outs that look alike come from different tables or passages of the source. Square brackets hold non-standard residues; d marks the D form. Peptide text beside a SMILES is read from it.

Experiments:
[1] = system: rat peritoneal mast cells; assay: In vitro histamine induction in rat peritoneal mast cells; format: cell-based
Summary of the method: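 Mast cells from peritoneal lavage of Sprague Dawley rats were incubated with compound at 10 μM for 15 min at 37 °C in HBSS + 25 mM HEPES pH 7.4. Supernatant histamine measured by EIA; response expressed as fold change versus pre-incubation levels.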

[2] = system: plasma histamine; conditions: rat
Experimental: For the in vivo evaluation of histamine release, compounds were dosed in isoflurane-anesthetized normal rats at 2 mg/kg by IV bolus (administered over less than one minute). Plasma histamine was measured 5 minutes after compound administration (Cayman histamine EIA #589651).

[3] = system: plasma histamine; assay: In vivo histamine release after IV bolus in normal Sprague Dawley rats (Example 6, FIG. 3 and 4)
[4] = system: plasma PTH; assay: 1K1C rat model of acute renal insufficiency, plasma PTH after dosing; format: in vivo; conditions: 1K1C rats, oral 30 mg/kg
[5] = system: plasma PTH; assay: In vivo PTH lowering after IV bolus in isoflurane-anesthetized normal Sprague Dawley rats; set-up: species or system rat; conditions: Table 2; for % PTH reduction of baseline at 1 hour post IV administration of 0.5 mg/kg compound: isoflurane-anesthetized normal rats, 0.5 mg/kg IV; for 0.5 mg/kg IV bolus % PTH AUC of saline control: normal rats, AUC 1-4 h
Summary of the method: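 Peptides were given as a 0.5 mg/kg IV bolus to normal Sprague Dawley rats kept under isoflurane throughout, with saline bolus controls.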

[6] = target: T1, human calcium-sensing receptor (CaSR) (Homo sapiens, UniProt P41180); assay: In vitro cell assay in HEK-293 expressing the human calcium-sensing receptor (IP1 production); format: cell-based; conditions: for potency to activate the human CaSR in vitro: HEK-293 cell assay; for EC50: Table 5, IP1 production in HEK293 cells expressing human CaSR, eight concentrations in duplicate, read-out: EC50 in CaSR in vitro assay
T1 construct: expressed in transfected cells; host or cells: HEK 293T cells, transiently transfected (lipofectamine 2000); in some cases HEK293 cells stably transfected
T1 sequence (P41180 20-1078): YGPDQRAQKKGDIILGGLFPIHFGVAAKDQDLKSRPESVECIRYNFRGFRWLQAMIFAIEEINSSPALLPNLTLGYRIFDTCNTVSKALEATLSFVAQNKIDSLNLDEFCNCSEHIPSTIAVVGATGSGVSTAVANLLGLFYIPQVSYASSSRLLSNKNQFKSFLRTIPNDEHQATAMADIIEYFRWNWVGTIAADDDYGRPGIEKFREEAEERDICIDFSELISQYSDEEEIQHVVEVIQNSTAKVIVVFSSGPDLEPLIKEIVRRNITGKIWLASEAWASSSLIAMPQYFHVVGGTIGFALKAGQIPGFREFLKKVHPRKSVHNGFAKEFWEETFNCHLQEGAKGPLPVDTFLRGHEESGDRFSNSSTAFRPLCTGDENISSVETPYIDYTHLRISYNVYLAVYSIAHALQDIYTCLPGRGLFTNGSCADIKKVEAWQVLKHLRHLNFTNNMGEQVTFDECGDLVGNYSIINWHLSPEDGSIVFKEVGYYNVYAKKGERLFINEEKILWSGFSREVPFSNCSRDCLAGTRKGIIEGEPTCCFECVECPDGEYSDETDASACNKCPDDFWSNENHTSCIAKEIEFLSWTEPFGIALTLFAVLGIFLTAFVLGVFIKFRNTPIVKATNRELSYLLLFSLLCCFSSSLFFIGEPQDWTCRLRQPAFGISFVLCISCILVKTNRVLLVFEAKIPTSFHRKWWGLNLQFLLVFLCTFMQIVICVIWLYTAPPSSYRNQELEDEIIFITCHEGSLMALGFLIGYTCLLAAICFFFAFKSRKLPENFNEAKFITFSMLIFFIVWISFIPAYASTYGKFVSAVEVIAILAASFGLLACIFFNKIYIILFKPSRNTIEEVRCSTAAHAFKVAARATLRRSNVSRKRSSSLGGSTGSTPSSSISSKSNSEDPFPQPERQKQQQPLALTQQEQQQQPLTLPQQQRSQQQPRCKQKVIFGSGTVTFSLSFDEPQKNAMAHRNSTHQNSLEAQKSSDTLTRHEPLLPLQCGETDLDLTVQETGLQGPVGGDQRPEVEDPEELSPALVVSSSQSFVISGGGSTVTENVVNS
Summary of the method: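 HEK293 cells transfected with human CaSR exposed to peptides at eight concentrations in duplicate (top 1 mM or 300 μM, ½-log dilutions) at 37 °C for 1.5 h.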

[7] = system: plasma histamine; conditions: rat, in vivo, iv

Row | Histamine in vitro Fold change of non-treated at 10 uM [1] [fold] | Histamine response in vivo Fold change from pre-dose levels 5′ post injection 2 mg/kg IV bolus [2] [fold] | Compound | % PTH reduction of baseline at 1 hour post IV administration of 0.5 mg/kg compound [5] [%] | 0.5 mg/kg IV bolus % PTH AUC of saline control [5] [%] | other results
1 | – | – | C[C@@H](NCCCc1cccc(C(F)(F)F)c1)c1cccc2ccccc12 [cinacalcet, Cinacalcet hydrochloride] | – | – | duration of PTH lowering [4]: up to 6 hours; lowering of PTH [4]: approximately 50%
2 | 0.7 | 0.9 | Ac-c(C)rrarar-NH2 [SEQ ID NO: 28] | 0 | 16 | –
3 | 2.5 | 1.0 | CC(=O)N[C@H](CS)C(=O)N[C@H](C)C(=O)N[C@H](CCCNC(=N)N)C(=O)N[C@H](C)C(=O)N[C@H](CCCNC(=N)N)C(=O)N[C@H](CCCNC(=N)N)C(=O)N[C@H](CCCNC(=N)N)C(N)=O [SEQ ID NO: 15, Ac-cararrr-NH2] (Ac-[dC][dA][dR][dA][dR][dR][dR]-NH2) | 75 | 116 | potency to activate the human CaSR in vitro [6]: significantly reduced potency in vitro in activating the CaSR; EC50 [6]: 13 µM; histamine response after IV bolus [7]: lack of a histamine response
4 | 1.1 | 1.0 | CC(=O)N[C@H](CS)C(=O)N[C@H](CCCNC(=N)N)C(=O)N[C@H](C)C(=O)N[C@H](CCCNC(=N)N)C(=O)N[C@H](CCCNC(=N)N)C(=O)N[C@H](CCCNC(=N)N)C(=O)N[C@H](C)C(N)=O [SEQ ID NO: 20, Ac-crarrra-NH2] (Ac-[dC][dR][dA][dR][dR][dR][dA]-NH2) | 45 | 69 | –
5 | 1.5 | 0.8 | CC(=O)N[C@H](CS)C(=O)N[C@H](CCCNC(=N)N)C(=O)N[C@H](C)C(=O)N[C@H](CCCNC(=N)N)C(=O)N[C@H](CCCNC(=N)N)C(=O)N[C@H](C)C(=O)N[C@H](CCCNC(=N)N)C(N)=O [SEQ ID NO: 23, Ac-crarrar-NH2] (Ac-[dC][dR][dA][dR][dR][dA][dR]-NH2) | 0 | 43 | –
6 | – | – | CC(=O)N[C@H](CS)C(=O)N[C@H](CCCNC(=N)N)C(=O)N[C@H](CCCNC(=N)N)C(=O)N[C@H](CCCNC(=N)N)C(=O)N[C@H](CCCNC(=N)N)C(=O)N[C@H](CCCNC(=N)N)C(=O)N[C@H](CCCNC(=N)N)C(=O)N[C@H](CCCNC(=N)N)C(=O)N[C@H](CCCNC(=N)N)C(N)=O [SEQ ID NO: 41, Ac-crrrrrrrr-NH2] | – | – | histamine fold over baseline ([3]; equimolar IV bolus 2.1 μmol/kg, normal rats, 5 minutes after dosing, FIG. 3): 6-9 fold; histamine response after IV bolus ([3]; rats, IV bolus): largest induction of histamine; potency to activate the human CaSR in vitro [6]: more potent at activating the CaSR; EC50 [6]: 0.3 µM

Row | Compound | Histamine in vitro Fold change of non-treated at 10 uM [1] [fold] | Histamine response in vivo Fold change from pre-dose levels 5′ post injection 2 mg/kg IV bolus [2] [fold] | % PTH reduction of baseline at 1 hour post IV administration of 0.5 mg/kg compound [5] [%] | 0.5 mg/kg IV bolus % PTH AUC of saline control [5] [%] | other results
7 | CC(=O)N[C@H](CSSC[C@H](N)C(=O)O)C(=O)N[C@H](C)C(=O)N[C@H](CCCNC(=N)N)C(=O)N[C@H](CCCNC(=N)N)C(=O)N[C@H](CCCNC(=N)N)C(=O)N[C@H](C)C(=O)N[C@H](CCCNC(=N)N)C(N)=O [SEQ ID NO: 3, Ac-c(C)arrrar-NH2] | 0.6 | 0.9 | – | – | fold increase in histamine level relative to pre-dose ([3]; 3 mg/kg IV bolus, isoflurane-anesthetized Sprague Dawley rats, FIG. 4): no apparent histamine response
